In patent US6713473B1, “Tricyclic compounds” (Meiji Seika Kaisha, Ltd., priority 1999, dated 2004):

Each compound was assayed against T1, human Y5 receptor (Homo sapiens, UniProt Q15761) (assay: Y5 receptor binding inhibition test). Conditions: not given.
T1 sequence (Q15761 1-445): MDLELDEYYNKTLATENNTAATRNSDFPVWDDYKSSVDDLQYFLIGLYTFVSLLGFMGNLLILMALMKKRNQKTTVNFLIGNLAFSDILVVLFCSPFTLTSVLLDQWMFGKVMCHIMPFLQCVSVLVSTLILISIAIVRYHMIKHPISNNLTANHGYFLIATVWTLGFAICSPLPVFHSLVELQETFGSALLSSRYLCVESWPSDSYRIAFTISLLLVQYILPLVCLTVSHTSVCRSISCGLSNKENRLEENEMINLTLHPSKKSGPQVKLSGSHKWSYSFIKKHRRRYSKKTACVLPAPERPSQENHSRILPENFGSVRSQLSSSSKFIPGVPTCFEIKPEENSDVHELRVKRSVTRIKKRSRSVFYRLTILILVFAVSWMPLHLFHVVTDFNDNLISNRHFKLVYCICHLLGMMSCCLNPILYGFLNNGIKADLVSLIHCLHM

| Compound | % Inhibition ratio (10 μM) |
| --- | --- |
| CC(C)n1c2c(c3cc(NC(=O)N(C)CCO)ccc31)CCCC2 [Compound 5-4] | 101% |
| O=C(Nc1ccc2c(c1)c1c(n2CCO)CCCC1)N1CCOCC1 [Compound 8-9] | 101% |
| CCCn1c2c(c3cc(NC(=O)N4CCOCC4)ccc31)CCCC2 [Compound 8-3] | 101% |

Same assay, conditions: 2 h, read-out: % Inhibition ratio (10 μM)

| Compound | inhibition at 10 µM |
| --- | --- |
| CCn1c2ccccc2c2cc(NC(=O)CCCCCCCNS(=O)(=O)c3cccc4ccccc34)ccc21 [Compound 1-3] | 78% |
| CCn1c2c(c3cc(C(=O)NCCCCCNS(=O)(=O)c4cccc5ccccc45)ccc31)CCCC2 [Compound 1-45] | 87% |
| CCn1c2ccccc2c2cc(NC(=O)C3CC3)ccc21 [Compound 3-5] | 100% |
| CCn1c2ccccc2c2cc(C(=O)NCCCCCNS(=O)(=O)N(C)C)ccc21 [Compound 1-24] | 98% |
| CC(C)n1c2c(c3cc(NC(=O)N(C)CCc4ccncc4)cc(F)c31)CCCC2 [Compound 12-2] | 96% |
| CCn1c2ccccc2c2cc(C(=O)NCCCCCN3C(=O)c4ccccc4C3=O)ccc21 [Compound 1-56] | 94% |
| CCn1c2c(c3cc(C(=O)NCCOCCSc4ncn[nH]4)ccc31)CCCC2 [Compound 2-1] | 71% |
| CCn1c2c(c3cc(NC(C)=O)ccc31)CCC2 [Compound 3-3] | 89% |
| CCn1c2ccccc2c2cc(NC(=O)CCCCCNS(=O)(=O)c3cccc4ccccc34)ccc21 [Compound 1-2] | 91% |
| CCn1c2c(c3cc(C(=O)NCCOCCn4nnnc4N)ccc31)CCCC2 [Compound 2-4] | 85% |
| CCn1c2c(c3cc(NC(C)=O)ccc31)CCCCC2 [Compound 3-2] | 94% |
| CCn1c2ccccc2c2cc(C(=O)NCCNCCNS(=O)(=O)c3cccc4ccccc34)ccc21 [Compound 1-29] | 89% |
| CC(=O)n1c2ccccc2c2cc(C(=O)NCCCCCNS(=O)(=O)c3cccc4ccccc34)ccc21 [Compound 1-54] | 88% |
| CCn1c2ccccc2c2cc(NC(=O)CCCCNS(=O)(=O)c3cccc4ccccc34)ccc21 [Compound 1-1] | 95% |
| CCn1c2ccccc2c2cc(NC(=O)COC)ccc21 [Compound 3-7] | 95% |
| CCn1c2c(c3c(O)c(C(=O)NCCCCCNS(=O)(=O)c4cccc5ccccc45)ccc31)CCCC2 [Compound 1-44] | 69% |
| CCn1c2ccccc2c2cc(C(=O)NCCCCCNS(C)(=O)=O)ccc21 [Compound 1-10] | 99% |
| CCOc1c(C(=O)NCCCCCNS(=O)(=O)c2cccc3ccccc23)ccc2c1c1ccccc1n2CC [Compound 1-39] | 80% |
| CCn1c2ccccc2c2cc(C(=O)NCCOCCNS(=O)(=O)c3cccc4ccccc34)ccc21 [Compound 1-28] | 100% |
| CCn1c2ccccc2c2cc(C(=O)NCCCCCNC(=O)C(C)C)ccc21 [Compound 1-18] | 88% |
| CCn1c2ccccc2c2cc(C(=O)NCCCCCNC(=O)C3CCCCC3)ccc21 [Compound 1-19] | 84% |
| CC(C)n1c2c(c3cc(NC(=O)N(C)CCc4ccncc4)c(F)cc31)CCCC2 [Compound 12-1] | 100% |
| COCCn1c2c(c3cc(C(=O)NCCOCCNS(=O)(=O)C(C)C)ccc31)CCCC2 [Compound 1-50] | 89% |
| CCn1c2ccccc2c2c(O)c(C(=O)NCCCCCNS(=O)(=O)c3cccc4ccccc34)ccc21 [Compound 1-41] | 52% |
| COCCn1c2ccccc2c2cc(C(=O)NCCCCCNS(=O)(=O)c3cccc4ccccc34)ccc21 [Compound 1-49] | 91% |
| CCn1c2ccccc2c2cc(NC(=O)CCNS(=O)(=O)c3cccc4ccccc34)ccc21 [Compound 1-4] | 100% |
| CCn1c2c(c3cc(C(=O)NCCOCCNS(C)(=O)=O)ccc31)CCCC2 [Compound 1-51] | 80% |
| CCCCn1c2ccccc2c2cc(C(=O)NCCCCCNS(=O)(=O)c3cccc4ccccc34)ccc21 [Compound 1-48] | 96% |

Same assay, conditions: test compound 10 μM; 3H-NPY; membrane of insect cells expressing human Y5 receptor; 4° C., 2 hours; relative to Y5 specific binding in solvent group

| Compound | % Inhibition ratio (10 μM) |
| --- | --- |
| CC(C)n1c2c(c3cc(NC(=O)N4CCC(N5CCCCC5)CC4)ccc31)CCCC2 [Compound 7-13] | 83% |
| CC(C)n1c2c(c3cc(NC(=O)N(C)CCCSc4nnc[nH]4)ccc31)CCCC2 [Compound 5-24] | 95% |
| CC(C)N(C)C(=O)Nc1ccc2c(c1)c1c(n2C(C)C)CCCC1 [Compound 5-2] | 97% |
| CC(C)n1c2c(c3cc(NC(=O)N(C)CCc4ccccn4)ccc31)CCCCC2 [Compound 11-2] | 96% |
| CC(C)n1c2c(c3cc(NC(=O)N4CCOCC4)ccc31)CCC2 [Compound 10-4] | 94% |
| CC(C)n1c2c(c3cc(NC(=O)N4CCCCC4)ccc31)CCCC2 [Compound 7-2] | 99% |
| CC(C)n1c2c(c3cc(NC(=O)N(C)CCc4ccccn4)ccc31)CCC2 [Compound 10-2] | 83% |
| CC(C)n1c2c(c3cc(NC(=O)N4CCN(c5ccccn5)CC4)ccc31)CCCC2 [Compound 7-20] | 89% |
| CC(=O)n1c2c(c3cc(NC(=O)N4CCOCC4)ccc31)CCCC2 [Compound 8-11] | 102% |
| CC(C)n1c2c(c3cc(NC(=O)N(C)CCN4CCN(C)CC4)ccc31)CCCC2 [Compound 5-15] | 87% |
| CC(C)n1c2c(c3cc(NC(=O)N(C)CCCCO)ccc31)CCCC2 [Compound 5-6] | 89% |
| CC(C)n1c2c(c3cc(NC(=O)N(C)CCN4CCOCC4)ccc31)CCCC2 [Compound 5-16] | 86% |
| CC(C)n1c2c(c3cc(NC(=O)N(C)CCC#N)ccc31)CCCC2 [Compound 5-9] | 98% |
| CC(C)n1c2c(c3cc(NC(=O)N(C)[C@H]4CC[C@H](O)CC4)ccc31)CCCC2 [Compound 5-12] | 100% |
| CCCCN(C)C(=O)Nc1ccc2c(c1)c1c(n2C(C)C)CCCC1 [Compound 5-3] | 98% |
| CC(C)n1c2c(c3cc(NC(=O)N4CCOC(CCO)C4)ccc31)CCCC2 (centres unmarked) [Compound 7-17] | 99% |
| CC(C)n1c2c(c3cc(NC(=O)N4CCSCC4)ccc31)CCCC2 [Compound 7-15] | 88% |
| CC(C)n1c2c(c3cc(NC(=O)N4CCCCCC4)ccc31)CCCC2 [Compound 7-3] | 98% |
| CC(C)n1c2c(c3cc(NC(=O)N4CCNCC4)ccc31)CCCC2 [Compound 7-18] | 92% |
| CCCCn1c2c(c3cc(NC(=O)N4CCOCC4)ccc31)CCCC2 [Compound 8-5] | 85% |
| CC(C)n1c2c(c3cc(NC(=O)N4CCCC4)ccc31)CCCC2 [Compound 7-1] | 92% |
| CC(C)n1c2c(c3cc(NC(=O)N(C)CCN4CCCCC4)ccc31)CCCC2 [Compound 5-14] | 95% |
| CC(C)n1c2c(c3cc(NC(=O)N4CCSC4)ccc31)CCCC2 [Compound 7-14] | 96% |
| CC(C)n1c2c(c3cc(NC(=O)N4CCCC(CO)C4)ccc31)CCCC2 (centres unmarked) [Compound 7-10] | 97% |
| CC(C)n1c2c(c3cc(NC(=O)N4CCC[C@@H]4CO)ccc31)CCCC2 [Compound 7-6] | 88% |
| CC(C)n1c2c(c3cc(NC(=O)N(C)CCSc4nnc[nH]4)ccc31)CCCC2 [Compound 5-23] | 98% |
| CC(C)n1c2c(c3cc(NC(=O)N4CCC(CCO)CC4)ccc31)CCCC2 [Compound 7-12] | 94% |
| CC(C)n1c2c(c3cc(NC(=O)N4C[C@@H](C)O[C@@H](C)C4)ccc31)CCCC2 [Compound 7-16] | 96% |
